Measurements published in patent US5430058A, “Pharmaceutical compositions comprising hydroxamate derivatives for iron removal” (Yeda Research and Development Co. Ltd., priority 1993, dated 1995).
≈ marks a conversion by molar mass, not a printed value. Read-outs that look alike come from different tables or passages of the source. One block for each compound: values may come before it.

Tests used:
[1] = test system: trophozoites of P. falciparum, strain ItG2G1; experiment: Antimalarial activity (Table 1), [3H]hypoxanthine incorporation; format: cell-based; details: Plasmodium falciparum
Method: (§1) f. Parasite cultures. The P. falciparum strains used in the experiments: ItG2G1 (Brazil, provided by Dr. L. H. Miller), D6 (W. African, provided by Dr. A. J. M. Oduola) FCR-3 (Gambian, provided by Dr. J. B. Jensen) and W2 (Indochina, provided by Dr. A. J. M. Oduola), were grown in culture flasks of human erythrocytes by a modified version of Trager and Jensen's method as described by Silfen et al. ((1988) Biochem. Pharmacol. 37: 4269-4276)).
(§2) g. Bioassay of iron carrier antimalarial activity. The antimalarial activity was assayed by adding the compounds from concentrated stock solutions (in DMSO) to microcultures (24 wells, Costar) containing infected red cells (2.5% hematocrit and 2% parasitemia). The cultures were usually synchronized (4-7 hrs. windows) by incubation in 300 mM Ala, 10 mM TRIS-Cl in conjunction with gelatin flotation and used either at the trophozoite (1-2% parasitemia) or at the ring stage (4-6% parasitemia) of the erythrocyctic cycle. After the indicated time of incubation with drug and either previous to or after washing 3 times with 100 volumes growth medium, the cells were supplemented with 6 μCi of either [^3 H]-hypoxanthine or [^3 H]-Ileu (Amersham, England) per well and parasite growth assessed after 24-48 hours by harvesting the labelled cells onto glass-fiber filters (Tamar, Inc. Jerusalem) and counting of the radioactivity.
The antimalarial activity of the different chelators was initially evaluated on cultures of trophozoites which were exposed for 24 hours to different concentrations of chelators. Following that period, [^3 H]-hypoxanthine or [^3 H]-Ileu were added and 24 hours later the parasitemia and incorporation of label into macromolecular material was determined.

[2] = test system: Plasmodium falciparum strain D6; experiment: Antimalarial activity in various strains, D6; format: cell-based
Method: as §1
(§3) g. Bioassay of iron carrier antimalarial activity. […] After the indicated time of incubation with drug and either previous to or after washing 3 times with 100 volumes growth medium, the cells were supplemented with 6 μCi of either [^3 H]-hypoxanthine or [^3 H]-Ileu (Amersham, England) per well and parasite growth assessed after 24-48 hours by harvesting the labelled cells onto glass-fiber filters (Tamar, Inc. Jerusalem) and counting of the radioactivity.
(§4) It is clear that the efficacy of the agents is primarily correlated with the respective octanol/saline partition coefficient or the hydrophobicity of the amino acid side chain, and only secondarily with their iron binding efficiencies, which are relatively high for all the agents. […] The antimalarial activity of the various chelators was assessed over a 24 hr period of exposure on infected cells (trophozoite stage of P. falciparum) as described in method (g). […]

infected red cells = experiment: Uptake of 59Fe-carrier complexes into infected red cells; format: cell-based, human erythrocytes infected with P. falciparum
Method: k. Uptake of radioactive carrier-Fe complexes. DFO and the different SF derivatives were pre-complexed with iron by addition of concentrated stock solutions of 20 mg/ml carriers to ^59 FeCl3 (Amersham, England) in 0.5 ml of 150 mM NaCl, 10 mM Hepes at 3-5 molar excess of carrier for 1 hour at room temperature. To begin the flux, normal or parasitized red cells that had been washed 3 times in saline buffer and resuspended in the same buffer supplemented with 5% bovine serum albumin (BSA), 2.5 mM citrate, 2 mg/ml glucose were added to radioactive ^59 Fe-complexes at a final suspension of 20% hematocrit. After incubation at 37° C., 75 μl suspension was removed in duplicate aliquots for each time point, placed in plastic 15 ml test tube (Starstedt) and centrifuged 1 minute at 2,500 g. The supernatant was removed and the pellet immediately placed on ice. After all sampling was completed the pellets were washed twice in 15 ml of ice cold buffer containing 50 mM EDTA and lysed in distilled water. Radioactivity (Gamma emission, 700-1300 Kev) was counted and the cell number for each sample determined from hemoglobin absorption of the lysate at 410 nm.
Penetration of RSF's into normal and infected red cells was estimated by monitoring uptake of the RSF's-^59 Fe(III) complexes into infected and uninfected cells and compared to DFO. In order to confirm actual uptake of Fe-RSF ileun2 rather than adsorption to the outer membrane, cells were thoroughly washed and lysates were subjected to 80,000g×20 min centrifugation.
The carriers were pre-complexed to ^59 FeCl3 at 4:1 ration in DMSO with 5 μM external FeCl3 (from methanolic stock solutions). The radioactive complexes were then added to 20% hematocrit cell suspensions and flux was measured. […] Cell number was determined from hemoglobin absorption of lysate at 410 nm.

[3] = test system: human HT29 colonic carcinoma cells; experiment: Proliferation of mammalian cells, HT29; format: cell-based; details: for Proliferation (nucleic acid synthesis): 24 hours exposure, [3H]-hypoxanthine; for Proliferation (protein synthesis): [3H]ileu incorporation, not shown
Method: (§5) The possibility that the reversed siderophores might affect mammalian cells in culture was assessed in conditions identical to those used for parasites in cultures. […] Nucleic acid synthesis was measured in cultures of mouse NIH 3T3 fibroblasts and human HT29 colonic carcinoma cells in the presence of either SF1-ileu (open circles), desferrioxamine (DFO) (solid triangle) in DMSO or DMSO alone (Control) (<1% final) (open triangles) at same concentrations. Cultures at confluence were exposed to chelators for 24 hours; the first 3 hours without radiolabel and 21 hours with 6 μCi/ml of [^3 H]-hypoxanthine. Extracellular hypoxanthine was removed by several washes with PBS and the cells were treated with 5% TCA for 15 minutes at 5° C. and solubilized with hot 2.5% SDS. Samples were taken for counting of radioactivity and measurement of protein (BCA, Pierce). Data are given as dpm/μg protein and SD (duplicate samples).

[4] = test system: mouse NIH 3T3 fibroblasts; experiment: Proliferation of mammalian cells, NIH 3T3; format: cell-based; details: for Proliferation (nucleic acid synthesis): 24 hours exposure, [3H]-hypoxanthine; for Proliferation (protein synthesis): [3H]ileu incorporation, not shown
Method: as §5

[5] = Relative iron(III) binding efficiency by competition with EDTA; format: physicochemical; details: for Relative binding: Table 1, DFO = 100, competition with EDTA in aqueous MeOH; for rel. Fe binding (b): Table 2, relative to DFO = 1.16, 0.75 mM hydroxamate, 0.15 mM EDTA, 0.15 mM Fe3+ in aqueous methanol; for Pcoeff*Fe binding (a*b): product of relative partition coefficient and relative iron(III) binding
Method: c. The relative binding efficiencies of the reversed siderophores (0.75 mM reversed siderophore and 0.15 mM Fe^3+ in aqueous MeOH (MeOH-0.1N NaOAc) were incubated with EDTA (0.15 mM). After equilibration overnight, the fraction of siderophore- Fe^3+ complex present was determined at 430 nm.
The values for Pcoeff of free RSF ileun2 (the same as SF1ileu) and of leun2 and their respective iron(III) complexes were similar (not shown).

[6] = test system: Plasmodium falciparum strain W2; experiment: Antimalarial activity in various strains, W2; format: cell-based
Method: as §1, §3, §4

[7] = test system: synchronized cultures of rings (P. falciparum); experiment: Time dependence of parasite growth inhibition, rings; format: cell-based, Plasmodium falciparum; details: for Inhibitory effect, in words: rings; for inhibition at 10 µg/mL: Plasmodium falciparum, read-out: Inhibition of parasite growth
Method: as §2
To study the growth stage of parasites most sensitive to inhibition, the time dependence of the inhibitory effect of SF1-ileu (10 μg/ml) vis a vis that of DFO (80 μg/ml) was assessed both on synchronized cultures of rings and of cultures of trophozoites. The cells were exposed to the […], the cells were washed from extracellular drug and assessed for [^3 H]-hypoxanthine incorporation after the last sample completed the 4 hours incubation period with drug.

[8] = iron(III) complex, infected red cells, 5 μM external Fe

IC50 ([1]; 48 hours exposure, strain ItG2G1 trophozoites, read-out: IC50): 30 µg/mL (≈ 53.5 µM)
IC50 ([2]; strain D6 (chloroquine-sensitive), 48 hour exposure, trophozoites, read-out: IC50): 40 ± 9 µg/mL (≈ 71.3 µM)
Uptake level lower than that attained by RSF's after 10 minutes (infected red cells; intracellular Fe-DFO after 8 hours vs RSF's after 10 minutes): 20 fold
Relative binding [5]: 100
rel. Fe binding (b) [5]: 1.16
Pcoeff*Fe binding (a*b) [5]: 0.065
IC50 ([6]; strain W2 (chloroquine-resistant), 48 hour exposure, trophozoites, read-out: IC50): 31 ± 6 µg/mL (≈ 55.3 µM)
SMILES: CC(=O)N(O)CCCCCNC(=O)CCC(=O)N(O)CCCCCNC(=O)CCC(=O)N(O)CCCCCN [DFO, desferrioxamine B, reference compound]
Uptake into infected vs normal red cells (infected red cells; DFO-Fe, 8 hour time course): approximately twice that of normal red cells
Proliferation (nucleic acid synthesis) [3]: neither SF1-ileu nor DFO affected the proliferation
Proliferation (protein synthesis) [3]: neither SF1-ileu nor DFO affected the proliferation
Proliferation (nucleic acid synthesis) [4]: neither SF1-ileu nor DFO affected the proliferation
Proliferation (protein synthesis) [4]: neither SF1-ileu nor DFO affected the proliferation
Inhibitory effect, in words ([7]; DFO 80 μg/ml, 6 hrs exposure): inhibitory effects were dismal
Inhibitory effect, in words ([7]; DFO 80 μg/ml, 20 hrs exposure): substantial inhibition

SMILES: CC[C@H](C)[C@H](NC(=O)CCOCC(CC)(COCCC(=O)N[C@H](C(=O)N(C)O)[C@@H](C)CC)COCCC(=O)N[C@H](C(=O)N(C)O)[C@@H](C)CC)C(=O)N(C)O [SF1-ileu]
IC50 ([1]; 48 h): 2 µg/mL (≈ 2.57 µM)
IC50 ([2]; D6, 48 h): 6 ± 2 µg/mL (≈ 7.72 µM)
Time to maximum uptake (infected red cells; iron(III) complex, infected red cells): 10 to 15 min
Maximum uptake level (infected red cells; [8]): 4 nmoles/10^10 cells
Uptake t1/2 (infected red cells; [8]): 2 to 3 min
Proliferation (nucleic acid synthesis) [3]: neither SF1-ileu nor DFO affected the proliferation
Proliferation (protein synthesis) [3]: neither SF1-ileu nor DFO affected the proliferation
Proliferation (nucleic acid synthesis) [4]: neither SF1-ileu nor DFO affected the proliferation
Proliferation (protein synthesis) [4]: neither SF1-ileu nor DFO affected the proliferation
Relative binding [5]: 25
rel. Fe binding (b) [5]: 0.29
Pcoeff*Fe binding (a*b) [5]: 2.4
IC50 ([6]; W2, 48 h): 4 ± 1 µg/mL (≈ 5.15 µM)
inhibition at 10 µg/mL ([7]; 2 h): ~70%
inhibition at 10 µg/mL ([7]; 20 h): > 95%
Inhibitory effect, in words ([7]; 0.5 hr incubation, SF1-ileu 10 μg/ml): major inhibitory effects
